We go through one compound from US20030166622A1, “Vitamin D derivatives with acyloxy groups in the side chains, process for their production, and the use for the production of pharmaceutical agents” (Schering AG, priority 2001, published 2003).

The target of one data set is T1, vitamin D receptor (Sus scrofa, UniProt A3RGC1).
T1 sequence (A3RGC1 1-427): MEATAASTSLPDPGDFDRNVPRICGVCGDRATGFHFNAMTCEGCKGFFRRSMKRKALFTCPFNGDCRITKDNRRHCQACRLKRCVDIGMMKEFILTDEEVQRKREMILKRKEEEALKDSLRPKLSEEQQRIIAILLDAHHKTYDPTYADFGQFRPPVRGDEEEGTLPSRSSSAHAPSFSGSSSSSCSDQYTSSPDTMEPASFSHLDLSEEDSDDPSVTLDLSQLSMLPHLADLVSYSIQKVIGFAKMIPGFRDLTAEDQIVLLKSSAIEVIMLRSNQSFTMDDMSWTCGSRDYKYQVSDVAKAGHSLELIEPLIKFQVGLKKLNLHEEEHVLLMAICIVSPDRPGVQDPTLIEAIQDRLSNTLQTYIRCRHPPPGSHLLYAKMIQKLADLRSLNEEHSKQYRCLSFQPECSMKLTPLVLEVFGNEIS
The data set is described as follows: calcitriol-receptor test (competition with 3H-calcitriol, protein extract from intestines of juvenile pigs).

The nature of data set [1]: DNFB-induced allergic contact allergy in the mouse (DNFB-DTH). The format is in vivo. An excerpt: 58, 179-204 (1999)]. The model of the dinitrofluorobenzene (DNFB)-induced allergic contact allergy in the mouse represents an inflammatory skin disease with the background of an inflammatory reaction of the delayed type (delayed type hypersensitivity; DTH). The inflammatory phase of the contact allergy is triggered by a multi-phase reaction. A repeated contact with the topically effective contact allergen DNFB (25 il of a 0.5% (w/v) DNFB solution in acetone/olive oil 4:1 [v/v] on the shaved abdomen with a surface area of about 10 cm^2 on test days 0. and 1.) triggers an immune reaction, which results in the sensitization of the animals against the specific agent, without “visible” symptoms occurring. Only after a sensitization time of 4-5 days, in which populations of DNFB-specific lymphocytes of “memory” type have formed in the draining lymph nodes, can a renewed contact (20 il of a 0.5% (w/v) DNFB solution in acetone/olive oil 4:1 [v/v]) trigger an inflammatory skin reaction with the contact allergen at any skin area (here: on both ears, treated surface area/ear about 2 cm^2). This second phase, which is also referred to as the trigger or “challenge,” ends in an eczematous lesion on the second contact site. The evaluation of the extent of the inflammatory reaction or the success of treatment is performed routinely 24 hours after the triggering, since at this time, the parameters that are to be analyzed (ear thickness and cell infiltration as a yardstick for the edema) have reached a plateau. The model of the DNFB-induced contact allergy allows the examination of the action of systemically or topically administered test substances with immunosuppressive/immunomodulating or inflammation-inhibiting properties. In the study on immunomodulating properties of calcitriol derivatives, the latter are administered once daily intragastrically in physiological common salt solution (0.9% NaCl) with an admixture of 0.085% Myrj 53) around the time of sensitization (beginning two days before and one day before sensitization, on the day of sensitization and on day 1 and 2 after sensitization). As side-effect parameters that are typical of vitamin D, the determination of the calcium level in the urine of the treated animals is used at the latest 24 hours after the last treatment with the substance. The calcium content is determined by flame-photometry. The significance of differences occurring between substance groups and controls as well as between test substance and reference substance are supported with suitable statistic processes. The therapeutic range of the test substances and calcitriol as a reference substance is indicated as a dose ratio DR (DR=factor of hypercalcemic threshold dose/immunosuppressive threshold dose).

A short description of data set [2]: acute hypercalcemic action in rats (serum calcium after one-time subcutaneous administration). The data set is classed as in vivo, rat. The following applies: relative to calcitriol, male rats. As for the experimental part:
To determine the acute hypercalcemic action of various calcitriol derivatives, the test that is described below is carried out:
The action of control (solution base), reference substance (1,25-dihydroxy vitamin D3=calcitriol) and test substance is tested in each case after one-time subcutaneous administration in groups of 10 healthy male rats (140-170 g). During the testing time, the rats are kept in special cages to determine the excretion of water and mineral substances. Urine is collected in 2 fractions (0-16 hours and 16-22 hours). An oral dose of calcium (0.1 mmol of calcium in 6.5% alpha-hydroxypropyl cellulose, 5 ml/animal) replaces at 1600 hours the calcium intake that is lacking by food deprivation. At the end of the test, the animals are sacrificed by decapitation and exsanguinated to determine the serum-calcium values. For the primary screening test in vivo, an individual standard dose (200 ig/kg) is tested. For selected substances, the result is supported by establishing a dose-effect relation.
A hypercalcemic action is shown in serum-calcium level values that are higher than in the control.
The significance of differences occurring between substance groups and controls as well as between test substance and reference substance are supported with suitable statistical processes.

Another data set concerns HL 60 cells. The data set is described as follows: differentiation induction of HL 60 cells to macrophages (NBT reduction). As to conditions: relative to calcitriol; 96 hours incubation. The data set is classed as cell-based, human. As for the experimental part:
The differentiation-stimulating action of calcitriol analogs is also detected quantitatively.
It is known in the literature [D. J. Mangelsdorf et al., J. Cell. Biol. 98, 391 (1984)] that the treatment of human leukemia cells (promyelocyte cell line HL 60) in vitro with calcitriol induces the differentiation of cells to macrophages.
HL 60 cells are cultivated in tissue culture medium (RPMI 10% fetal calf serum) at 37° C. in an atmosphere of 5% CO2 in air.
For substance testing, the cells are centrifuged off, and 2.0×10^5 cells/ml in phenol red-free tissue culture medium are taken up. The test substances are dissolved in ethanol and diluted to the desired concentration with tissue culture medium without phenol red. The dilution stages are mixed with the cell suspension at a ratio of 1:10, and 100 il each of this cell suspension that is mixed with substance is pipetted into an indentation of a 96-hole plate. For control, a cell suspension is mixed analogously with the solvent.
After incubation for 96 hours at 37° C. in 5% CO2 in air, 100 il of an NBT-TPA solution (nitro blue tetrazolium (NBT), final concentration in the batch of 1 mg/ml, tetradecanoyl phorbolmyristate-13-acetate (TPA), final concentration in the batch of 2×10^−7 mol/l) is pipetted into each indentation of the 96-hole plate in the cell suspension.
By incubation for 2 hours at 37° C. and 5% CO2 in air, NBT is reduced to insoluble formazan because of the intracellular oxygen radical release, stimulated by TPA, in the cells that are differentiated to macrophages.
To complete the reaction, the indentations of the 96-hole plate are suctioned off, and the cells are affixed to the bottom of the plate by adding methanol and dried after affixing. To dissolve the intracellular formazan crystals that are formed, 100 il of potassium hydroxide (2 mol/l) and 100 il of dimethyl sulfoxide are pipetted into each indentation and ultrasonically treated for 1 minute. The concentration of formazan is measured by spectrophotometry at 650 nm.
As a yardstick for the differentiation induction of HL 60 cells to macrophages, the concentration of formed formazan applies.

“Also recorded” adds a separate entry of the source.

Protocol for vitamin D receptor: It is carried out using a protein extract from the intestines of juvenile pigs. […] To this end, 250 il of a charcoal-dextran suspension is fed to each test tube and incubated at 4° C. for 20 minutes. Then, the samples are centrifuged at 10,000 g for 5 minutes at 4° C. The supernatant is decanted and measured in a á-counter after 1 hour of equilibration in Picofluor 15™.
The competition curves that are obtained at various concentrations of test substance as well as of reference substance (unlabeled calcitriol) at constant concentration of the reference substance (^3H-calcitriol) are placed in relation to one another, and a competition factor (KF) is determined.
It is defined as a quotient of the concentrations of the respective test substance and the reference substance, which are necessary for 50% competition:
KF=Concentration of test substance at 50% competition
Concentration of reference substance at 50% competition

As for `C=C1/C(=C\C=C2/CCC[C@]3(C)[C@@H]([C@H](C)CC[C@@H](OC(=O)C(C)(C)C)C4(c5ncc(CCCC)o5)CC4)CC[C@@H]23)C[C@@H](O)C[C@@H]1O` [Compound 5b], on vitamin D receptor (relative to unlabeled calcitriol, 3H-calcitriol 5x10^-10 mol/l, 2 hours at 4° C), the “KF (competition factor: concentration of test substance / reference substance at 50% competition)” value was above 100. In addition, the activity in vitro entry on vitamin D receptor (result in words, summary of the in vitro tests of the table (calcitriol-receptor test and HL 60)) is “inactivity; also recorded: deficient activity”. In data set [1] (result in words, contact allergy in the mouse), the “activity in vivo (prevention of the formation of edemas)” value is on record as “therapeutically active in vivo”. Besides, the “DR (Hypercalcemic threshold dose/ immunosuppressive threshold dose)” value in data set [1] (therapeutic range, mouse, once daily intragastrically around sensitization, calcium level in urine as side-effect parameter) was 20,000. The “DR (Ca) (dose ratio for hypercalcemia, test substance dose/reference substance dose for comparable actions)” value in data set [2] was above 1000. Further, the “DR (HL 60) (dose ratio test substance/reference substance for comparable semi-maximum actions)” value in the data set on HL 60 cells was above 170.
